Measurements reported in US20090118285A1, “USE OF KCNQ-OPENERS FOR TREATING OR REDUCING THE SYMPTOMS OF SCHIZOPHRENIA” (H. Lundbeck A/S, priority 2006, published 2009).

Assays:
[1] = system: conditioned avoidance response in rats; assay: Conditioned avoidance response in rats; assay type: in vivo, rat; details: rats
Text: In the conditioned avoidance response (CAR) model, rats are trained to respond to a stimulus within a fixed time by moving from one place to another in order to avoid a footshock. Antipsychotics selectively suppress the avoidance response within a certain dose-range without suppressing escape behavior elicited by the appearance of the footshock. The CAR model is considered to be a predictive and reliable animal model that is sensitive to compounds with an antipsychotic potential.
Subjects. Male Wistar rats (Taconic, Denmark) weighing 150 g at the beginning of the study are used. The rats are housed ii pairs and maintained on a 12 h light/dark cycle (lights on 06:00). The animals are fed once daily (approx. 6 pellets/rat) in order to keep the rats at 80% of their free-feeding weight. Water is available ad libitum. Temperature (21±1° C.) and relative humidity (55±5%) are automatically controlled.
Experimental procedure. Conditioned avoidance testing is conducted using four automated shuttle-boxes (ENV-010M, MED-Associates) each placed in a sound-attenuated chamber. Each box is divided into two compartments by a partition with an opening. The position of the animal and crossings from one compartment to the other are detected by two photocells placed on either side of the dividing wall. Upon presentation of the conditioned stimuli (CS), tone and light, the animals have 10 s to cross to the other compartment of the shuttle-box in order to turn the CS off (end the trial) and avoid the appearance of the unconditioned stimulus (UCS). If the rat remains in the same compartment for more than 10 s, the UCS is presented as 0.5 mA scrambled foot-shocks until escape is performed or 10 s in maximal duration. The following behavioural variables are evaluated: avoidance (response to CS within 10 s); escape (response to CS+UCS); escape failures (failure to respond); intertrial crosses and locomotor activity. The rats are habituated to the shuttle-box 3 min before each test session. During training each test session consists of 30 trials with intertrial intervals varying randomly between 20 s and 30 s. Training is carried until the rats display an avoidance of 80% or more, on 3 consecutive days. A test is preceded by a pre-test the day before giving rise to a baseline value for each animal, thus the animals serve as their own control. Seven to eight rats are used at each dose level. A parallel control group receiving the vehicle of the test compound is also included.
Administration of compound.
Statistical analyses. The effects of compounds on avoidance and escape failure behaviours were statistically evaluated by means of a two-way repeated measures ANOVA followed by post hoc comparisons (Student-Newman-Keuls Method) when appropriate. P-levels <0.05 were considered statistically significant.

DA neurons in the VTA = assay: Spontaneous DA cell firing in the VTA of anaesthetised rats (in vivo electrophysiology); design: species or system rat; details: mean ± SEM
Text: In the mesolimbic system, all clinically used neuroleptics initially increase the firing rate of dopaminergic neurons (Tung et al., 1991, J. Neural Transm. Gen Sect., 84(1-2), 53-64,). After chronic administration, such neuroleptics eventually (after 3-4 weeks of treatment) decrease the firing rate to below pre-treatment levels (Skarsfeldt 1992, Synapse, 10, 25-33; White and Wang 1983, Science, 221, 1054-1057). This inhibitory effect on dopaminergic neurones, which is believed to be mediated by a depolarization blockade, is thought to be of therapeutic significance to the antipsychotic effect of neuroleptics (Grace and Bunney 1986, J. Pharmacol. Exp. Ther. 238, 1092-1100). […] The presence of KCNQ subunits on DA neurons in the VTA in rodents is well-documented but their functionality is unknown (Saganich et al. 2001, J. Neurosci. 21(13)4609-4624; Cooper et al. 2001, J. Neurosci., 21(24)9529-9540).
Subjects. Male Wistar rats (Harlan, The Netherlands) weighing 270-340 g were used. The animals were housed under a 12-hr light/dark cycle under controlled conditions for regular in-door temperature (21±2° C.) and humidity (55±5%) with food and tap water available ad libitum.
Experimental procedure. The rats were anaesthetised with an intraperitoneal injection of chloral hydrate (400 mg/kg). A femoral vein catheter was then inserted for supplementary anaesthetic injections (100 mg/kg) and drug administration. Animals were then mounted in a stereotaxic frame, the skull was exposed, and a hole (0.5×0.5 cm) was drilled above the ventral tegmental area. Extracellular single-cell recordings were performed using electrodes pulled from glass capillaries and filled with 2% Pontamine Sky Blue in 2 M NaCl. The tip of the electrode was broken under microscopic control, yielding an impedance of 2.0-8.0 MΩ at 135 Hz. The electrode was then lowered into the brain, using a hydraulic microdrive, aimed at the following coordinates: 5.5-5.0 mm posterior to Bregma; 0.5-0.9 mm lateral to the midline. Extracellular action potentials were amplified, discriminated and monitored on an oscilloscope and an audiomonitor. Discriminated spikes were collected and analysed using Spike 2 software (Cambridge Electronic Design Ltd., Cambridge, UK) on a PC-based system connected to a CED 1401 interface unit (Cambridge Electronic Design Ltd.). Presumed dopaminergic neurons were typically found 7.0-8.5 mm beneath the brain surface and were characterised by (1) a slow and irregular firing pattern (0.5-10 Hz), and (2) triphasic action potentials with a predominant positive component, a negative component followed by a minor positive component, with an overall duration >2.5 ms (Bunney et al. 1973, J. Pharmacol. Exp. Ther., 185, 560-571.).
Administration of compounds. […] These i.v. doses match the s.c. dose range of 0-10 mg/kg.
Statistical analysis. Drug effects were assessed by statistical comparison of the mean firing rate calculated from the 2-3 min period immediately before the first drug administration (baseline) to the mean firing rate calculated from at least 60 s at the maximal drug effect. Data were analysed statistically by a one-way ANOVA followed by Student-Newman-Keuls posthoc test. A p-value less than 0.05 was considered significant.

in vivo = details: Wistar, rat, sc
[2] = system: incidence of seizures in epileptic patients; details: clinical trials (Bialer et al. 2002); cited from earlier work
[3] = system: DA levels in the nucleus accumbens; assay: Microdialysis: DA levels in the nucleus accumbens of freely moving rats; assay type: in vivo, rat; details: no amphetamine provocation, data not shown

With CCOC(=O)Nc1ccc(NCc2ccc(F)cc2)cc1N as the molecule, how does the “% inhibition of avoidance. Relative to baseline.” value ([1]; 5 mg/kg s.c. 30 min before the test) read?
The value was 1%.

What about the “% inhibition of avoidance. Relative to baseline.” value ([1]; 10 mg/kg s.c. 30 min before the test) of the same molecule?
Its value is 59%.

And the “Escape failures (effect on motor performance)” value ([1]; all tested doses, data not shown)?
Its value is “None of the tested doses caused any incidences of escape failures”.

And the “Spontaneous DA cell firing rate” value (DA neurons in the VTA; cumulated dose 0.3 mg/kg i.v.)?
The value was 95.4 ± 5.0 (4) percentage of baseline firing rate.

And the “Spontaneous DA cell firing rate” value (DA neurons in the VTA; cumulated dose 1.0 mg/kg i.v.)?
Its value is 90.5 ± 4.6 (5) percentage of baseline firing rate.

What about the “Spontaneous DA cell firing rate” value (DA neurons in the VTA; cumulated dose 2.0 mg/kg i.v.) of the same molecule?
Its value is 81.1 ± 5.1 (5) percentage of baseline firing rate.

What about the “Spontaneous DA cell firing rate” value (DA neurons in the VTA; cumulated dose 4.0 mg/kg i.v.) of the same molecule?
Its value is 67.1 ± 3.7 (4) percentage of baseline firing rate.

What about the “Spontaneous DA cell firing rate” value (DA neurons in the VTA; cumulated dose 6.0 mg/kg i.v.) of the same molecule?
The value was 60.6 ± 0.7 (2) percentage of baseline firing rate.

And the ED50 at 2 h (in vivo)?
The ED50 at 2 h was greater than 8.1 mg/kg.

And the “Incidence of seizures in epileptic patients” value [2]?
The value was “shown effectiveness in reducing the incidence of seizures in epileptic patients”.

And the “Effect on basal extracellular DA level in the nucleus accumbens” value [3]?
The value was “merely provoked levels of DA were affected, but not basal levels of DA”.
